Active and inactive are the calls of the source. No rule for the calls is given here.
System: CCRIS mutagenicity, Ames/micronucleus/aberration tests
Experiment: CCRIS mutagenicity studies
[1] = Test System: AMES SALMONELLA TYPHIMURIUM, Strain/Indicator: TA98, Metabolic Activation: HAMSTER, LIVER, S-9, AROCLOR 1254, Method: STANDARD PLATE
[2] = Test System: AMES SALMONELLA TYPHIMURIUM, Strain/Indicator: TA98, Metabolic Activation: NONE, Method: STANDARD PLATE
[3] = Test System: AMES SALMONELLA TYPHIMURIUM, Strain/Indicator: TA98, Metabolic Activation: RAT, LIVER, S-9, AROCLOR 1254, Method: STANDARD PLATE
[4] = Test System: AMES SALMONELLA TYPHIMURIUM, Strain/Indicator: TA100, Metabolic Activation: HAMSTER, LIVER, S-9, AROCLOR 1254, Method: STANDARD PLATE
[5] = Test System: AMES SALMONELLA TYPHIMURIUM, Strain/Indicator: TA100, Metabolic Activation: NONE, Method: STANDARD PLATE
[6] = Test System: AMES SALMONELLA TYPHIMURIUM, Strain/Indicator: TA100, Metabolic Activation: RAT, LIVER, S-9, AROCLOR 1254, Method: STANDARD PLATE
[7] = Test System: AMES SALMONELLA TYPHIMURIUM, Strain/Indicator: TA1535, Metabolic Activation: HAMSTER, LIVER, S-9, AROCLOR 1254, Method: STANDARD PLATE
[8] = Test System: AMES SALMONELLA TYPHIMURIUM, Strain/Indicator: TA1535, Metabolic Activation: NONE, Method: STANDARD PLATE
[9] = Test System: AMES SALMONELLA TYPHIMURIUM, Strain/Indicator: TA1535, Metabolic Activation: RAT, LIVER, S-9, AROCLOR 1254, Method: STANDARD PLATE
[10] = Test System: AMES SALMONELLA TYPHIMURIUM, Strain/Indicator: TA1537, Metabolic Activation: HAMSTER, LIVER, S-9, AROCLOR 1254, Method: STANDARD PLATE
[11] = Test System: AMES SALMONELLA TYPHIMURIUM, Strain/Indicator: TA1537, Metabolic Activation: NONE, Method: STANDARD PLATE
[12] = Test System: AMES SALMONELLA TYPHIMURIUM, Strain/Indicator: TA1537, Metabolic Activation: RAT, LIVER, S-9, AROCLOR 1254, Method: STANDARD PLATE
[13] = Test System: AMES SALMONELLA TYPHIMURIUM, Strain/Indicator: TA1538, Metabolic Activation: HAMSTER, LIVER, S-9, AROCLOR 1254, Method: STANDARD PLATE
[14] = Test System: AMES SALMONELLA TYPHIMURIUM, Strain/Indicator: TA1538, Metabolic Activation: NONE, Method: STANDARD PLATE
[15] = Test System: AMES SALMONELLA TYPHIMURIUM, Strain/Indicator: TA1538, Metabolic Activation: RAT, LIVER, S-9, AROCLOR 1254, Method: STANDARD PLATE
[16] = Test System: MOUSE LYMPHOMA, Strain/Indicator: L5178Y (TK+/TK-), Metabolic Activation: NONE, Method: SUSPENSION/PLATE
[17] = Test System: MOUSE LYMPHOMA, Strain/Indicator: L5178Y (TK+/TK-), Metabolic Activation: RAT, LIVER, S-9, AROCLOR 1254, Method: SUSPENSION/PLATE

With `CC[C@H](C)[C@@H]([C@@H](CC(=O)N1CCC[C@H]1[C@H](OC)[C@@H](C)C(=O)N[C@@H](Cc1ccccc1)c1nccs1)OC)N(C)C(=O)[C@@H](NC(=O)[C@H](C(C)C)N(C)C)C(C)C` the mutagenic call [1] was “inactive; negative”, the mutagenic call [2] was “inactive; negative” and the mutagenic call [3] was “inactive; negative”. For the same molecule, the mutagenic call [4] was “inactive; negative”, the mutagenic call [5] was “inactive; negative” and the mutagenic call [6] was “inactive; negative”. For the same molecule, the mutagenic call [7] was “inactive; negative”, the mutagenic call [8] was “inactive; negative” and the mutagenic call [9] was “inactive; negative”. For the same molecule, the mutagenic call [10] was “inactive; negative”, the mutagenic call [11] was “inactive; negative” and the mutagenic call [12] was “inactive; negative”. For the same molecule, the mutagenic call [13] was “inactive; negative”, the mutagenic call [14] was “inactive; negative” and the mutagenic call [15] was “inactive; negative”. The mutagenic call [16] was “active; positive. reevaluation of results: inconclusive” and the mutagenic call [17] was “inactive; negative. reevaluation of results: negative”.
`CC(C)c1ccccc1OC(=O)N(C)N=O` was tested, and the mutagenic call (Test System: E. COLI WP2, Strain/Indicator: WP2, Metabolic Activation: NONE, Method: STANDARD PLATE) was “active; positive”.
In the case of `[N-]=[N+]=NC[C@H]1O[C@H](O)[C@H](O)[C@H](O)[C@@H]1O`, the mutagenic call [2] is reported as “inactive; negative” and the mutagenic call [5] is reported as “active; positive”.
`CC(C)NCC(O)COc1ccc(CC(N)=O)cc1` (stereo unspecified) was tested, and the mutagenic call (Test System: AMES SALMONELLA TYPHIMURIUM, Strain/Indicator: TA98, Metabolic Activation: NONE) was “inactive; negative”, the mutagenic call (Test System: AMES SALMONELLA TYPHIMURIUM, Strain/Indicator: TA98, Metabolic Activation: RAT, LIVER, S-9, AROCLOR 1254) was “inactive; negative” and the mutagenic call (Test System: AMES SALMONELLA TYPHIMURIUM, Strain/Indicator: TA100, Metabolic Activation: NONE) was “inactive; negative”. The mutagenic call (Test System: AMES SALMONELLA TYPHIMURIUM, Strain/Indicator: TA100, Metabolic Activation: RAT, LIVER, S-9, AROCLOR 1254) was “inactive; negative”, the mutagenic call (Test System: AMES SALMONELLA TYPHIMURIUM, Strain/Indicator: TA1535, Metabolic Activation: NONE) was “inactive; negative” and the mutagenic call (Test System: AMES SALMONELLA TYPHIMURIUM, Strain/Indicator: TA1535, Metabolic Activation: RAT, LIVER, S-9, AROCLOR 1254) was “inactive; negative”. For the same molecule, the mutagenic call (Test System: AMES SALMONELLA TYPHIMURIUM, Strain/Indicator: TA1537, Metabolic Activation: NONE) was “inactive; negative”, the mutagenic call (Test System: AMES SALMONELLA TYPHIMURIUM, Strain/Indicator: TA1537, Metabolic Activation: RAT, LIVER, S-9, AROCLOR 1254) was “inactive; negative” and the mutagenic call (Test System: UDS HUMAN HEPATOCYTES, Strain/Indicator: THY INCORP, Metabolic Activation: NONE, Method: AUTORADIOGRAPHY) was “inactive; negative”. For the same molecule, the mutagenic call (Test System: UDS RAT HEPATOCYTES, Strain/Indicator: THY INCORP, Metabolic Activation: NONE, Method: AUTORADIOGRAPHY) was “inactive; negative”.
In the case of `CC(C)(C)CN(N=O)C(N)=O`, the mutagenic call (Test System: E. COLI, Strain/Indicator: HS30R UVRA, Metabolic Activation: NONE, Method: PREINCUBATION) is reported as “active; positive” and the mutagenic call (Test System: E. COLI, Strain/Indicator: O16 POLA, Metabolic Activation: NONE, Method: PREINCUBATION) is reported as “active; positive”.
`CC(C)Cl` was tested, and the mutagenic call (End Point: In vitro micronucleus, Test System: Chinese Hamster Ovary (CHO-WBL) cells, Metabolic Activation: None) was “inactive; negative”, the mutagenic call (Test System: AMES SALMONELLA TYPHIMURIUM, Strain/Indicator: TA100, Metabolic Activation: NONE, Method: DESICCATOR) was “active; positive” and the mutagenic call (Test System: AMES SALMONELLA TYPHIMURIUM, Strain/Indicator: TA100, Metabolic Activation: RAT, LIVER, S-9, AROCLOR 1254, Method: DESICCATOR) was “active; positive”.
With `N#CC1CO1` (stereo unspecified) the mutagenic call (Test System: UDS HUMAN MAMMARY EPITHELIAL CELLS, Strain/Indicator: THY INCORP, Metabolic Activation: NONE, Method: AUTORADIOGRAPHY) was “active; positive” and the mutagenic call (Test System: UDS PRIMARY RAT HEPATOCYTES, Strain/Indicator: THY INCORP, Metabolic Activation: NONE, Method: AUTORADIOGRAPHY) was “inactive; negative”.
In the case of `O=C(/C=C/c1ccc(O)c(O)c1)O[C@@H]1C[C@](O)(C(=O)O)C[C@@H](O)[C@H]1O`, the mutagenic call [1] is reported as “inactive; negative”, the mutagenic call [2] is reported as “inactive; negative” and the mutagenic call [3] is reported as “inactive; negative”. The mutagenic call [4] was “inactive; negative”, the mutagenic call [5] was “inactive; negative” and the mutagenic call [6] was “inactive; negative”. For the same molecule, the mutagenic call [7] was “inactive; negative”, the mutagenic call [8] was “inactive; negative” and the mutagenic call [9] was “inactive; negative”. The mutagenic call [10] was “inactive; negative”, the mutagenic call [11] was “inactive; negative” and the mutagenic call [12] was “inactive; negative”. The mutagenic call [13] was “inactive; negative”, the mutagenic call [14] was “inactive; negative” and the mutagenic call [15] was “inactive; negative”. For the same molecule, the mutagenic call [16] was “inactive; negative. reevaluation of results: negative” and the mutagenic call [17] was “active; positive. reevaluation of results: positive”.
In the case of `C=C[Si](C)(C)N[Si](C)(C)C=C`, the mutagenic call (Test System: AMES SALMONELLA TYPHIMURIUM, Strain/Indicator: TA98, Metabolic Activation: HAMSTER, LIVER, S-9, AROCLOR 1254 (10%), Method: STANDARD PLATE) is reported as “inactive; negative”, the mutagenic call [2] is reported as “inactive; negative” and the mutagenic call (Test System: AMES SALMONELLA TYPHIMURIUM, Strain/Indicator: TA98, Metabolic Activation: RAT, LIVER, S-9, AROCLOR 1254 (10%), Method: STANDARD PLATE) is reported as “inactive; negative”. For the same molecule, the mutagenic call (Test System: AMES SALMONELLA TYPHIMURIUM, Strain/Indicator: TA100, Metabolic Activation: HAMSTER, LIVER, S-9, AROCLOR 1254 (10%), Method: STANDARD PLATE) was “inactive; negative”, the mutagenic call [5] was “inactive; negative” and the mutagenic call (Test System: AMES SALMONELLA TYPHIMURIUM, Strain/Indicator: TA100, Metabolic Activation: RAT, LIVER, S-9, AROCLOR 1254 (10%), Method: STANDARD PLATE) was “inactive; negative”. For the same molecule, the mutagenic call (Test System: AMES SALMONELLA TYPHIMURIUM, Strain/Indicator: TA1535, Metabolic Activation: HAMSTER, LIVER, S-9, AROCLOR 1254 (10%), Method: STANDARD PLATE) was “inactive; negative”, the mutagenic call [8] was “inactive; negative” and the mutagenic call (Test System: AMES SALMONELLA TYPHIMURIUM, Strain/Indicator: TA1535, Metabolic Activation: RAT, LIVER, S-9, AROCLOR 1254 (10%), Method: STANDARD PLATE) was “inactive; negative”. For the same molecule, the mutagenic call (Test System: AMES SALMONELLA TYPHIMURIUM, Strain/Indicator: TA1537, Metabolic Activation: HAMSTER, LIVER, S-9, AROCLOR 1254 (10%), Method: STANDARD PLATE) was “inactive; negative”, the mutagenic call [11] was “inactive; negative” and the mutagenic call (Test System: AMES SALMONELLA TYPHIMURIUM, Strain/Indicator: TA1537, Metabolic Activation: RAT, LIVER, S-9, AROCLOR 1254 (10%), Method: STANDARD PLATE) was “inactive; negative”. The mutagenic call (Test System: AMES SALMONELLA TYPHIMURIUM, Strain/Indicator: TA1538, Metabolic Activation: HAMSTER, LIVER, S-9, AROCLOR 1254 (10%), Method: STANDARD PLATE) was “inactive; negative”, the mutagenic call [14] was “inactive; negative” and the mutagenic call (Test System: AMES SALMONELLA TYPHIMURIUM, Strain/Indicator: TA1538, Metabolic Activation: RAT, LIVER, S-9, AROCLOR 1254 (10%), Method: STANDARD PLATE) was “inactive; negative”. The mutagenic call [16] was “inactive; negative. reevaluation of results: negative” and the mutagenic call [17] was “inactive; negative. reevaluation of results: negative”.
